These compounds were tested against T1, ALK2 R206H (GST-tagged mutant ALK2) (Homo sapiens, UniProt Q04771, R206H) (assay: ALK binding assay (LANTHASCREEN TR-FRET competitive binding, displacement of Kinase Tracer 178)). Conditions: ALK2 R206H, LANTHASCREEN TR-FRET competitive binding; read-out: Binding Assay (IC50).
T1 construct: purchased Carna Bioscience or ThermoFisher 09-148 or PV6232
T1 sequence (Q04771 21-509 R206H): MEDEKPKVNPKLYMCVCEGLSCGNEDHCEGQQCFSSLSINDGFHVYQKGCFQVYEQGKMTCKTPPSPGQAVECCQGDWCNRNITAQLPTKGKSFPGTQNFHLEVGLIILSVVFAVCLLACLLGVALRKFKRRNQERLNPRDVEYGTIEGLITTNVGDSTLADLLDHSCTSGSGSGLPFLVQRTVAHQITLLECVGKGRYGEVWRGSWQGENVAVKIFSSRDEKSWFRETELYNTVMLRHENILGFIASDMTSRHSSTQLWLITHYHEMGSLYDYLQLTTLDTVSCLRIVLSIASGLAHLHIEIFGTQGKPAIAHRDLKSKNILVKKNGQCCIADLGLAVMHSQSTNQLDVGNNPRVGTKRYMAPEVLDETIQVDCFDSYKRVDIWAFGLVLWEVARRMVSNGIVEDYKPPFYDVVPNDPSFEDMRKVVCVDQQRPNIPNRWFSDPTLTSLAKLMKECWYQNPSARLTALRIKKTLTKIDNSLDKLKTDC
Protocol: Binding assays were conducted using the LANTHASCREEN® technology (ThermoFisher Scientific). LANTHASCREEN® is a competitive binding, displacement assay where the assumed steady state occupancy of the binding site is measured using a time-resolved, fluorescence energy transfer (TR-FRET) readout between a fluorescent tracer and Europium (Eu)-tagged antibody specific for the kinase or expression tag (e.g. GST) of interest. Displacement of the tracer by a compound of the disclosure reduces, and is directly proportional to, the TR-FRET between the tracer and the antibody. Tracer was used at a concentration equal to or near to its Kd for the kinase.
In all cases, the kinase (2-5 nM) was mixed with Eu-tagged antibody (10 nM) mix and tracer (50 nM) were incubated with test compound titrations prepared in 100% DMSO (1% DMSO final) for 30 minutes at room temperature. All reagents and compounds were dissolved in Kinase Buffer A (ThermoFisher) to achieve the final concentration. […] This readout was normalized to 0% and 100% inhibited control wells, plotted against inhibitor concentration, and fitted to a 4-parameter log dose response curve.
Blank values in the table indicate that the particular compound was not tested in this assay.

IC50 [nM] | SMILES
> 50 | O=C(C1CC1)N1CCN(c2ccnn3cc(-c4ncc5n4CCNC5)cc23)CC1 [Compound 101]
10 to 50 | O=C(C1CC1)N1CCN(c2ccnn3cc(-c4ccn(C5CCNC5)n4)cc23)CC1 (centres unmarked) [Compound 105]
> 50 | CN1CCn2c(cnc2-c2cc3c(N4CCN(C(=O)C5CC5)CC4)ccnn3c2)C1 [Compound 106]
10 to 50 | O=C(C1CC1)N1CCN(c2ccnn3cc(-c4nc5c(s4)CCNC5)cc23)CC1 [Compound 108]
> 50 | O=C(C1CC1)N1CCN(c2ccnn3cc(-c4ccc(Br)cc4)cc23)CC1 [Compound 119]
< 10 | O=C(C1CC1)N1CCN(c2ccnn3cc(-c4ccc(NC5=NCCN5)cc4)cc23)CC1 [Compound 121, cyclopropyl(4-(6-(4-(4,5-dihydro-1H-imidazol-2-ylamino)phenyl)pyrrolo[1,2-b]pyridazin-4-yl)piperazin-1-yl)methanone]
10 to 50 | O=C(C1CC1)N1CCN(c2ccnn3cc(-c4ccc(C5CCOCC5)cc4)cc23)CC1 [Compound 126]
10 to 50 | CCN1CCN(c2ccc(-c3cc4c(N5CCN(C(C)=O)CC5)ccnn4c3)cc2)CC1 [Compound 136]
10 to 50 | CCN1CCC(n2ccc(-c3cc4c(N5CCN(C(=O)C6CC6)CC5)ccnn4c3)n2)C1 (centres unmarked) [Compound 138]
< 10 | CCN1CCC(n2cc(-c3cc4c(N5CCN(C(=O)C6CC6)CC5)ccnn4c3)cn2)C1 (centres unmarked) [Compound 139]
10 to 50 | CCNC(=O)N1CCN(c2ccnn3cc(-c4ccc([C@H]5CNCCO5)cc4)cc23)CC1 [Compound 141]
> 50 | O=C(C1CC1)N1CCN(c2ccnn3cc(-c4ccc(N5CCNCC5=O)cc4)cc23)CC1 [Compound 151]
> 50 | CCN1CCN(c2ccc(-c3cc4c(N5CCN6C(=O)CCC6C5)ccnn4c3)cc2)CC1 (centres unmarked) [Compound 157, 2-(6-(4-(4-ethylpiperazin-1-yl)phenyl)pyrrolo[1,2-b]pyridazin-4-yl)hexahydropyrrolo[1,2-a]pyrazin-6(7H)-one]
10 to 50 | C[C@H]1CNC[C@@H](c2ccc(-c3cc4c(N5CCN(C(=O)C6CC6)CC5)ccnn4c3)cc2)O1 [Compound 165]
< 10 | O=C(C1CC1)N1CCN(c2ccnn3cc(-c4ccc(OCC5CCNC5)cc4)cc23)CC1 (centres unmarked) [Compound 166]
10 to 50 | C[C@@H]1CNC[C@@H](c2ccc(-c3cc4c(N5CCN(C(=O)C6CC6)CC5)ccnn4c3)cc2)O1 [Compound 168]
10 to 50 | CCN1CC2CN(c3ccnn4cc(-c5ccc(N6CCNCC6)cc5)cc34)CCN2C1=O (centres unmarked) [Compound 171]
10 to 50 | O=C(C1CC1)N1CCN(c2ccnn3cc(-c4ccc([C@H]5CCNC[C@H]5F)cc4)cc23)CC1 [Compound 175]
10 to 50 | O=C(C1CC1)N1CCN(c2ccnn3cc(-c4ccc([C@@H]5CCNC[C@@H]5F)cc4)cc23)CC1 [Compound 176]
10 to 50 | CCN1CCC(n2cc(-c3cc4c(N5CCN(C(=O)C6CC6)CC5)ccnn4c3)cn2)CC1 [Compound 183]
< 10 | Cc1nc(C2CCNCC2)sc1-c1cc2c(N3CCN(C(=O)C4CC4)CC3)ccnn2c1 [Compound 190]
< 10 | O=C(C1CC1)N1CCN(c2ccnn3cc(-c4ccc(N5CCC6(CNC6)C5)cc4)cc23)CC1 [Compound 198]
< 10 | CCN1CCC[C@@H](c2ccc(-c3cc4c(N5CCN(C(=O)C6CC6)CC5)ccnn4c3)cc2)C1 [Compound 206]

IC50 [nM] | SMILES
10 to 50 | CCN1CCC(c2ccc(-c3cc4c(N5CCN(C(=O)C(C)=O)CC5)ccnn4c3)cc2)CC1 [Compound 215]
10 to 50 | CCN1CCC1COc1ccc(-c2cc3c(N4CCN(C(=O)C5CC5)CC4)ccnn3c2)cc1 (centres unmarked) [Compound 218]
< 10 | CC(C)N1CC(Oc2ccc(-c3cc4c(N5CCN(C(=O)C6CC6)CC5)ccnn4c3)cc2)C1 [Compound 220]
< 10 | O=C(C1CC1)N1CCN(c2ccnn3cc(-c4c(F)cc(N5CCNCC5)cc4F)cc23)CC1 [Compound 239]
< 10 | O=C(C1CC1)N1CCN(c2ccnn3cc(-c4ccc(N5CCC6(CCNC6)C5)cc4)cc23)CC1 (centres unmarked) [Compound 244]
10 to 50 | O=C(C1CC1)N1CCN(c2ccnn3cc(-c4ccc(OCCN5CCNCC5)cc4)cc23)CC1 [Compound 273, cyclopropyl(4-(6-(4-(2-(piperazin-1-yl)ethoxy)phenyl)pyrrolo[1,2-b]pyridazin-4-yl)piperazin-1-yl)methanone]
10 to 50 | CCN1CCN(c2ccc(-c3cc4c(N5CCN(C(=O)[C@@H]6C[C@@H]6F)CC5)ccnn4c3)cc2)CC1 [Compound 291]
10 to 50 | CCN1CCN(c2ccc(-c3cc4c(N5CCN(C(=O)C6(F)CC6)CC5)ccnn4c3)cc2)CC1 [Compound 294]
> 50 | CCN1CCC(c2ccc(-c3cc4c(N5CCN(C(=O)C6(C(C)=O)CC6)CC5)ccnn4c3)cc2)C1 (centres unmarked) [Compound 311]
10 to 50 | CCN1C[C@H]2CN(c3ccnn4cc(-c5ccc(N6CCN(C(C)C)CC6)cc5)cc34)CCN2C1=O [Compound 331]
10 to 50 | CCN(C)C(=O)N1CCN(c2ccnn3cc(-c4ccc(C5CCN(C(C)C)CC5)cc4)cc23)CC1 [Compound 342]
10 to 50 | CCN1CCC(c2ccc(-c3cc4c(N5CCN(C(=O)C6(C(F)F)CC6)CC5)ccnn4c3)cc2)C1 (centres unmarked) [Compound 356]
10 to 50 | CCN1CCN(c2cc(F)c(-c3cc4c(N5CCN(C(=O)C6CC6)CC5)ccnn4c3)c(F)c2)CC1 [Compound 362]
< 10 | CCN1CCC(c2ccc(-c3cc4c(N5CCN(C(=O)C6CC6C6CCC6)CC5)ccnn4c3)cc2)C1 (centres unmarked) [Compound 372]
10 to 50 | O=C(C1CC1)N1CCN(c2ccnn3cc(-c4ccc(N5CCNCC5C(F)(F)F)cc4)cc23)CC1 (centres unmarked) [Compound 374, cyclopropyl(4-(6-(4-(2-(trifluoromethyl)piperazin-1-yl)phenyl)pyrrolo[1,2-b]pyridazin-4-yl)piperazin-1-yl)methanone]
< 10 | N#C[C@H]1CC[C@H](C(=O)N2CCN(c3ccnn4cc(-c5ccc(C6CNCC6F)cc5)cc34)CC2)CC1 (some centres unmarked) [Compound 378]
10 to 50 | CCN(CC)C(=O)N1CCN(c2ccnn3cc(-c4ccc(C5CCN(C(C)C)CC5)cc4)cc23)CC1 [Compound 392]
10 to 50 | CCN1CCN(c2ccc(-c3cc4c(N5CCN(C(=O)N6CC(OC)C6)CC5)ccnn4c3)cc2)CC1 [Compound 397]
> 50 | CCN1CCN(c2ccc(-c3cc4c(N5CCN(C(=O)C6CC6)C(C(F)F)C5)ccnn4c3)cc2)CC1 (centres unmarked) [Compound 403, cyclopropyl(2-(difluoromethyl)-4-(6-(4-(4-ethylpiperazin-1-yl)phenyl)pyrrolo[1,2-b]pyridazin-4-yl)piperazin-1-yl)methanone]
< 10 | CC(C)N1CCC(c2ccc(-c3cc4c(N5CCN(C(=O)C6CC(C#N)C6)CC5)ccnn4c3)cc2)CC1 (centres unmarked) [Compound 405]
> 50 | CCN1CCC(c2ccc(-c3cc4c(N5CCN(C(=O)C6(C(F)(F)F)CC6)CC5)ccnn4c3)cc2)C1 (centres unmarked) [Compound 410]
10 to 50 | CC(C)N1CCC(c2ccc(-c3cc4c(N5CCN(C(=O)C6(C7CC7)CC6)CC5)ccnn4c3)cc2)CC1 [Compound 414]

SMILES | IC50 [nM]
CC(C)N1CCC(c2ccc(-c3cc4c(N5CC6CC(C5)N6C(=O)C5CC5)ccnn4c3)cc2)CC1 [Compound 306] | 10 to 50
CCNC(=O)N1CC2CC(C1)N2c1ccnn2cc(-c3ccc(C4CCN(C(C)C)CC4)cc3)cc12 [Compound 319] | > 50
